In PMC9007350, “Aurintricarboxylic acid is a canonical disruptor of the TAZ-TEAD transcriptional complex” (PLoS ONE, 2022):

Tested on: TC/TEAD transcriptional profile in TC-expressing NIH3T3 cells
Experiment: Bulk RNA-Seq, differential gene expression and GSEA (TC ATA v. TC DMSO)
Assay type: cell-based, murine
Settings: TC ATA v. TC DMSO
Description: NIH3T3 and HEK293 cells were obtained from the American Type Tissue Collection (ATCC, Manassas, VA) and cultured in DMEM containing 10% fetal bovine serum and penicillin/streptomycin. A TEAD dual luciferase reporter assay was performed as previously described. Cells were treated with vehicle control or ATA (10 μM) for 48 h before measuring the luciferase activity or processing the samples for RNA extraction. Each experiment was repeated at least 2-3 times. NIH3T3 cells were used. The extracted RNA (RNeasy Mini, Qiagen) from treated cells was either used for qPCR measurements or sent for bulk RNA-Seq. Sequencing runs were performed on an Illumina HiSeq 4000 sequencer (Genewiz). Subsequent bioinformatics analysis was performed in the Galaxy Project platform. Paired end reads were aligned to the murine genome ([…]2 [27]. Raw count files were generated with featureCounts using a corresponding GTF reference. Differential gene expression analysis was performed with DESeq2 [29]. Transcripts were considered to be differentially expressed if the false discovery rate < 0.05 and Log2FC > 2. When performing differential gene expression for GSEA analysis, the Limma package was used (<5 CPM filtering) with t-scores used for rank statistics. GSEA plots and statistics were generated with FGSEA with custom gene sets. Raw sequencing reads and processed files have been deposited in the GEO repository (data will be uploaded upon manuscript acceptance). The Universal Probe Library probes (Roche) and the associated primer sequences for the qPCR targets are listed below: […]

With `O=C(O)C1=CC(=C(c2ccc(O)c(C(=O)O)c2)c2ccc(O)c(C(=O)O)c2)C=CC1=O` [ATA, aurintricarboxylic acid] the “Log2 Fold Change” value (gene Hmga1b) was -0.4737, the “Log2 Fold Change” value (gene Htra1) was -0.7041 and the “Log2 Fold Change” value (gene Id1) was 1.021. For the same molecule, the “Log2 Fold Change” value (gene Id3) was 0.8267, the “Log2 Fold Change” value (gene Igfbp4) was 0.6017 and the “Log2 Fold Change” value (gene Il1r1) was 0.3663. The “Log2 Fold Change” value (gene Il11ra1) was 0.412, the “Log2 Fold Change” value (gene Il17rd) was 0.6209 and the “Log2 Fold Change” value (gene Ipo7) was -0.2967. For the same molecule, the “Log2 Fold Change” value (gene Lrig1) was -0.4157, the “Log2 Fold Change” value (gene Ltbp2) was -0.4917 and the “Log2 Fold Change” value (gene Ly6a) was 1.151. The “Log2 Fold Change” value (gene Mgst1) was 1.029, the “Log2 Fold Change” value (gene Mocs1) was 0.3748 and the “Log2 Fold Change” value (gene Mrgprf) was 0.6309. For the same molecule, the “Log2 Fold Change” value (gene Mybpc1) was 0.8979, the “Log2 Fold Change” value (gene Myl3) was 1.696 and the “Log2 Fold Change” value (gene Myoz2) was 1.5589. For the same molecule, the “Log2 Fold Change” value (gene Naaa) was 0.4836, the “Log2 Fold Change” value (gene Nefm) was -1.532 and the “Log2 Fold Change” value (gene Nes) was -0.5782. For the same molecule, the “Log2 Fold Change” value (gene Nipal1) was -0.5524, the “Log2 Fold Change” value (gene Nqo1) was 0.5252 and the “Log2 Fold Change” value (gene Nrcam) was -1.361. For the same molecule, the “Log2 Fold Change” value (gene Nrn1) was 0.4579, the “Log2 Fold Change” value (gene Nrxn2) was 0.7098 and the “Log2 Fold Change” value (gene Odc1) was -0.4352. The “Log2 Fold Change” value (gene Optn) was 0.5559, the “Log2 Fold Change” value (gene Osmr) was 0.5327 and the “Log2 Fold Change” value (gene Pcx) was 0.5741. For the same molecule, the “Log2 Fold Change” value (gene Pdgfrb) was 0.5085, the “Log2 Fold Change” value (gene Pdgfrl) was 0.4243 and the “Log2 Fold Change” value (gene Podnl1) was -0.4267. For the same molecule, the “Log2 Fold Change” value (gene Prrx2) was 0.8257, the “Log2 Fold Change” value (gene Pvr) was -0.3787 and the “Log2 Fold Change” value (gene Rcan2) was 0.6454. The “Log2 Fold Change” value (gene Rgs4) was 0.757, the “Log2 Fold Change” value (gene Rnf150) was 0.5435 and the “Log2 Fold Change” value (gene Sema7a) was -1.826. The “Log2 Fold Change” value (gene Serpinb9) was 0.5861, the “Log2 Fold Change” value (gene Serpine2) was 0.9636 and the “Log2 Fold Change” value (gene Setbp1) was 0.5242. For the same molecule, the “Log2 Fold Change” value (gene Slc45a3) was 0.6918, the “Log2 Fold Change” value (gene Smoc2) was 0.9475 and the “Log2 Fold Change” value (gene Ssbp2) was 0.4963. The “Log2 Fold Change” value (gene Stard10) was 0.7192, the “Log2 Fold Change” value (gene Sulf2) was 0.5447 and the “Log2 Fold Change” value (gene Thbs3) was 0.6372. The “Log2 Fold Change” value (gene Tmem119) was 0.9507, the “Log2 Fold Change” value (gene Tnnt1) was 1.595 and the “Log2 Fold Change” value (gene Tnxb) was 0.5484. The “Log2 Fold Change” value (gene Tpm2) was 0.3178, the “Log2 Fold Change” value (gene Trim30a) was 1.18 and the “Log2 Fold Change” value (gene Trp53inp2) was 0.6286. For the same molecule, the “Log2 Fold Change” value (gene Zfp503) was 0.4797.
